The structures appear in SMILES notation. pIC50: −log10 of the molar value. Active and inactive are the calls of the source. The calls are words filed in the database; no cut-off is given here.

Usually pIC50 stands for −log10 of the IC50, conventionally taken in molar units. A word on the inhibition: it is the share of the control response that was lost under treatment. Higher therefore signals a response far below the control.

One data set addresses T1, Androgen receptor (Homo sapiens, UniProt P10275).
T1 sequence (P10275 whole entry): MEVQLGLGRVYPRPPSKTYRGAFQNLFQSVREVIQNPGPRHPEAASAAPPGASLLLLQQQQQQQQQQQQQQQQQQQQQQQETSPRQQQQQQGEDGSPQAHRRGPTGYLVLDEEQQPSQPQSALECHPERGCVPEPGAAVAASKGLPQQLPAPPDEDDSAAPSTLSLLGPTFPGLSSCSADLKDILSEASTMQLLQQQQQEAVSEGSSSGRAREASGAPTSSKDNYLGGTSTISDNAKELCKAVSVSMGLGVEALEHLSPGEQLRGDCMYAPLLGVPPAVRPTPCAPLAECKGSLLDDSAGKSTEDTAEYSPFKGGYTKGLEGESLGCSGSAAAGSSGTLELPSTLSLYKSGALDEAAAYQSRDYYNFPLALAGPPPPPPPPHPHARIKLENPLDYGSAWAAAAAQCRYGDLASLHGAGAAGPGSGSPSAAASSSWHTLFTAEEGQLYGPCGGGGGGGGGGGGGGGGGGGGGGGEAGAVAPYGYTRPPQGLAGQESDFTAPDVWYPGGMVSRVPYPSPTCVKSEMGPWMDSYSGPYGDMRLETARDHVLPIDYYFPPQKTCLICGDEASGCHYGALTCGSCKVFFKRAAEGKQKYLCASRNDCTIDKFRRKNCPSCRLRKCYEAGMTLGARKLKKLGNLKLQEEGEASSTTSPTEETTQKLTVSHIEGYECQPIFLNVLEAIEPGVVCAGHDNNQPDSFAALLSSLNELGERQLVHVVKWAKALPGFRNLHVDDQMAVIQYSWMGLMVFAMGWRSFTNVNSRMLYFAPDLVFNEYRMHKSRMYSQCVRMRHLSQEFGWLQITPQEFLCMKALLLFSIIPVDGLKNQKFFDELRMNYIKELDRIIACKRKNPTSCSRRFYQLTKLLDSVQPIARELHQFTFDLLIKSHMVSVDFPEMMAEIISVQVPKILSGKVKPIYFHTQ
As to the kind of experiment: Antagonist activity at Androgen receptor in human LNCaP cells transfected with ARR2PB-eGFP incubated for 3 days by synergy H1 microplate reader analysis. Format: cell-based.

The target of the next data set is hERG (KCNH2) (Homo sapiens, UniProt Q12809). As to the kind of experiment: (§1) Inhibition of hERG at 10 uM relative to control. The data set is classed as toxicity. (In general: Block of hERG is tested as a sign of cardiac risk.)
Sequence of hERG (KCNH2) (Q12809 whole entry): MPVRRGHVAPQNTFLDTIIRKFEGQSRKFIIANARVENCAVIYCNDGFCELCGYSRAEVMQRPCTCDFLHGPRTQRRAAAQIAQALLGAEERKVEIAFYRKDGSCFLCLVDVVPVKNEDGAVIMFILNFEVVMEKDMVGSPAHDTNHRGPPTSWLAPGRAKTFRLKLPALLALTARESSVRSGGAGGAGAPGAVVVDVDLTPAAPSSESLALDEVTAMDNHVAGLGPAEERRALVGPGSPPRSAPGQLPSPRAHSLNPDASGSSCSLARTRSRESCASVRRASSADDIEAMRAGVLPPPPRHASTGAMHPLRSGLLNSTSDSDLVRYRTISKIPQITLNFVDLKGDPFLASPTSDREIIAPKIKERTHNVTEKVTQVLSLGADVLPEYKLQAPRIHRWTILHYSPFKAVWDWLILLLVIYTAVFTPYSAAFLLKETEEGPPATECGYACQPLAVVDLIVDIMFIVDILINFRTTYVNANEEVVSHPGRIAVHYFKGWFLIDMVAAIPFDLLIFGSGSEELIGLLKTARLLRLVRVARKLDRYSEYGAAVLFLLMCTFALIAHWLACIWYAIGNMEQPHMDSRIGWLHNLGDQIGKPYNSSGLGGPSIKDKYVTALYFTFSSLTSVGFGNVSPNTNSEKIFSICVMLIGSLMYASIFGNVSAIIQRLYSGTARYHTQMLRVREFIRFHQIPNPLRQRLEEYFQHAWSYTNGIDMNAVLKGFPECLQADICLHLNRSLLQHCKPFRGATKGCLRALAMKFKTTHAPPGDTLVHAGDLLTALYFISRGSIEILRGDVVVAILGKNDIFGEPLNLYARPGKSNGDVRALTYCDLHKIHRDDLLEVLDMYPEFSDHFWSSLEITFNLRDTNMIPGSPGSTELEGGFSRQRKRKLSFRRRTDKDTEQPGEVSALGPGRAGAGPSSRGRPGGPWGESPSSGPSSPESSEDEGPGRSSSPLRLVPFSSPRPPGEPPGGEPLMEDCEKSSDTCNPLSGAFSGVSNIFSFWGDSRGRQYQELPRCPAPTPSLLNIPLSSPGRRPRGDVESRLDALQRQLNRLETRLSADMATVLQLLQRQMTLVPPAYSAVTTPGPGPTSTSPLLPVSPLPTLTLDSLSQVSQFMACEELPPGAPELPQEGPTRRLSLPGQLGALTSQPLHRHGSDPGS
Data set [1] has as its system LNCaP. Kind of data set: Downregulation of FKBP5 level in DHT-induced human LNCaP cells at 0.1 to 1 uM incubated for 24 hrs by Western blot analysis. The data set is classed as functional, cell-based. The following applies: dose 0.1-1 µM. (In general: In western blotting, separated proteins are transferred to a membrane and probed.)
The test system of data set [2] is LNCaP. Kind of data set: Antiproliferative activity against human LNCaP cells assessed as inhibition of cell proliferation incubated for 3 days by MTT assay. The following applies: 72 h. Format: functional, cell-based. A general note: Tetrazolium dyes change colour on reduction, which living cells bring about.
Data set [3] in a line: Antagonist activity at Androgen receptor F877L/T878A double mutant in human HEK293T cells cotransfected with MMTV-luc and renilla plasmid incubated for 24 hrs by Dual luciferase assay. Format: cell-based. The following applies: HEK-293T.
In data set [4] the test system is LNCaP. As to the kind of experiment: Antiproliferative activity against human LNCaP cells assessed as survival rate incubated for 3 days by MTT assay. The following applies: 72 h.
Data set [5] concerns the target Voltage-gated inwardly rectifying potassium channel KCNH2 (Homo sapiens, UniProt Q12809). Described as §1. Format: toxicity. The following applies: 10 µM.
Another data set has as its system LNCaP C4-2. As to the kind of experiment: Antiproliferative activity against human LNCaP C4-2 cells assessed as survival rate incubated for 3 days by MTT assay. The following applies: LNCaP C4-2, 72 h.
For a further data set, the system named is LNCaP C4-2B. As to the kind of experiment: Antiproliferative activity against human LNCaP C4-2B cells assessed as survival rate incubated for 3 days by MTT assay. The following applies: 72 h.
The nature of data set [6]: Downregulation of PSA level in human LNCaP cells transfected with ARR2PB-eGFP incubated for 24 hrs by Western blot analysis.
The test system of another data set is NIH3T3. Kind of data set: Antiproliferative activity against mouse 3T3 cells assessed as reduction in cell viability incubated for 3 days by MTT assay. The data set is classed as toxicity, cell-based. The following applies: nih3t3, 72 h, time 3 day.

Sequence of Voltage-gated inwardly rectifying potassium channel KCNH2 (Q12809 whole entry): as above

Consider `Cc1oc(-c2ccc(F)c(C(F)(F)F)c2)cc1C(=O)Nc1nc(CN2CCOCC2)ns1`, for which, at Androgen receptor, the negative-log IC50 (pIC50) was 7.59.

Regarding `Cc1oc(-c2cccc(C#N)c2)cc1C(=O)Nc1nc(CN2CCOCC2)ns1`, at Androgen receptor, the pIC50 was 7.80. Further, the inhibition at 10 µM at hERG (KCNH2) is 47.8%.

Turning to `Cc1oc(-c2cccc(OC(F)F)c2)cc1C(=O)Nc1nc(CN2CCOCC2)ns1`, the pIC50 at Androgen receptor is 7.80. Besides, at hERG (KCNH2), the inhibition at 10 µM is 68.3%. Take `Cc1oc(-c2cccc(C(F)(F)F)c2)cc1C(=O)Nc1nc(CC(C)N2CCN(C)CC2)ns1` (centres undefined): at Androgen receptor, the pIC50 was 7.44. Take `Cc1oc(-c2cccc(C(F)(F)F)c2)cc1C(=O)Nc1nc(CN2CCC(C(C)(C)O)CC2)ns1`: the negative logarithm of the IC50 (pIC50) at Androgen receptor was 6.57. Same read-out and setting: as for `CC(=O)Cc1nsc(NC(=O)c2cc(-c3cccc(C(F)(F)F)c3)oc2C(F)(F)F)n1`, the figure is 5.08; as for `CC(=O)Cc1nsc(NC(=O)c2cc(-c3cccc(C(F)(F)F)c3)oc2C)n1`, 6.82; as for `CC(=O)Cc1ccc(NC(=O)c2cc(-c3cccc(C(F)(F)F)c3)oc2C)cc1`, 4.30. Still for that read-out and setting: the result for `Cc1oc(-c2cccc(C(F)(F)F)c2)cc1C(=O)Nc1nc(CN2CCC(O)CC2)ns1` reads 6.85. On the same count and under the same terms, the result for `Cc1oc(-c2cccc(C(F)(F)F)c2)cc1C(=O)Nc1nc(CN2CCN(C)CC2)ns1` reads 7.13; that for `Cc1oc(-c2cccc(C(F)(F)F)c2F)cc1C(=O)Nc1nc(CN2CCOCC2)ns1`, 6.70.

Turning to `Cc1oc(-c2cccc(OC(F)(F)F)c2)cc1C(=O)Nc1nc(CN2CCOCC2)ns1`, the pIC50 at Androgen receptor was 7.72. This molecule showed an inhibition at 10 µM on hERG (KCNH2) of 47.3%.

With `Cc1oc(-c2cccc(C(F)(F)F)c2)cc1C(=O)Nc1nccs1`, the pIC50 on Androgen receptor was 6.35. `Cc1oc(-c2cccc(C(F)(F)F)c2)cc1C(=O)Nc1nc(CC(C)N2CCOCC2)ns1` (centres undefined): the pIC50 at Androgen receptor was 7.49. As to `Cc1oc(-c2cccc(C(F)(F)F)c2Cl)cc1C(=O)Nc1nc(CN2CCOCC2)ns1`, the pIC50 on Androgen receptor was 6.07.

In the case of `Cc1oc(-c2cccc(C(F)(F)F)c2)cc1C(=O)Nc1nc(CN2CCC(CO)CC2)ns1`, on Androgen receptor, the pIC50 was 6.80. Also, the result in the data set on LNCaP [1] was Active. In the case of `CC(=O)Cc1nsc(NC(=O)c2coc(-c3cccc(C(F)(F)F)c3)c2)n1`, the pIC50 on Androgen receptor is 6.15.

Consider `Cc1oc(-c2cc(C(F)(F)F)ccc2F)cc1C(=O)Nc1nc(CN2CCOCC2)ns1`, for which the negative logarithm of the IC50 (pIC50) on Androgen receptor is 7.74; in the data set on LNCaP [2], 5.56. Also, the inhibition at 10 µM at hERG (KCNH2) was 21%. On to `Cc1oc(-c2cccc(C(F)(F)F)c2)cc1C(=O)Nc1nc(CC(C)N(C)C)ns1` (centres undefined), for which, at Androgen receptor, the pIC50 is 6.55. For `Cc1oc(-c2cccc(C(F)(F)F)c2)cc1C(=O)Nc1nc(CC(C)N2CCCC2)ns1` (centres undefined), the pIC50 at Androgen receptor is 7.62. This molecule also gave an inhibition at 10 µM against hERG (KCNH2) of 93.5%.

With `CC(Cc1nsc(NC(=O)c2cc(-c3cccc(C(F)(F)F)c3)oc2C)n1)=C(F)F`, the pIC50 on Androgen receptor is 6.55. The same measure, in the same setting: the result for `Cc1oc(-c2cc(Cl)cc(C(F)(F)F)c2)cc1C(=O)Nc1nc(CN2CCOCC2)ns1` reads 6.59. As to `Cc1oc(-c2cccc(C(F)(F)F)c2)cc1C(=O)Nc1nc(CC(C)N2CCCCC2)ns1` (centres undefined), the pIC50 at Androgen receptor is 6.35. On to `Cc1oc(-c2cccc(C(F)(F)F)c2)cc1C(=O)Nc1nc(CN2CCC(O)C2)ns1` (centres undefined), for which the pIC50 at Androgen receptor was 6.33.

As to `Cc1oc(-c2cccc(C(F)(F)F)c2)cc1C(=O)Nc1nc(CC(C)O)ns1` (centres undefined), the pIC50 on Androgen receptor was 7.54. Molecule `CC(O)c1cc(C(=O)N[C@@H](C)Cn2ccc(-c3ccc(C#N)c(Cl)c3)n2)n[nH]1` (some centres undefined) [DAROLUTAMIDE] gave a pIC50 in data set [3] of 6.17. As to `CNC(=O)c1ccc(N2C(=S)N(c3ccc(C#N)c(C(F)(F)F)c3)C(=O)C2(C)C)cc1F` [ENZALUTAMIDE], the pIC50 in the data set with LNCaP [4] is 4.56; with LNCaP [2], 4.91; in the data set with LNCaP C4-2, 4.56; with LNCaP C4-2B, 4.79; in data set [6] it was 6.28. In data set [5], the “inhibition (INH)” value was “Not_active”.

Regarding `Cc1oc(-c2cccc(C(F)(F)F)c2)cc1C(=O)Nc1nc(CN2CCCC(O)C2)ns1` (centres undefined), at Androgen receptor, the pIC50 was 6.82. Consider `COc1cccc(-c2cc(C(=O)Nc3nc(CN4CCOCC4)ns3)c(C)o2)c1`, for which the pIC50 on Androgen receptor is 7.66. 10 µM produced 36.9% inhibition against hERG (KCNH2).

In the case of `Cc1oc(-c2cccc(C(F)(F)F)c2)cc1C(=O)Nc1nc(CN2CCCCC2)ns1`, on Androgen receptor, the pIC50 is 7.62. Testing at 10 µM at hERG (KCNH2) gave an inhibition of 95.5%. On to `Cc1oc(-c2cccc(C(F)(F)F)c2)cc1C(=O)Nc1nc(CN2CCCC2)ns1`, for which the negative-log IC50 (pIC50) at Androgen receptor is 7.21.

For `Cc1oc(-c2cccc(C(F)(F)F)c2)cc1C(=O)Nc1ncns1`, the pIC50 on Androgen receptor was 6.74. `Cc1oc(-c2ccc(Cl)c(C(F)(F)F)c2)cc1C(=O)Nc1nc(CN2CCOCC2)ns1`: the pIC50 on Androgen receptor was 7.46. For the same molecule, 10 µM produced 51.3% inhibition against hERG (KCNH2). On to `CC(=O)Cc1nsc(NC(=O)c2cc(-c3cccc(C(F)(F)F)c3)sc2C)n1`, for which, on Androgen receptor, the pIC50 was 5.04.

At hERG (KCNH2), `Cc1oc(-c2cc(F)cc(C(F)(F)F)c2)cc1C(=O)Nc1nc(CN2CCOCC2)ns1` yielded an inhibition at 10 µM of 16.4%. Besides, the Activity entry with NIH3T3 is “Non-toxic”. Regarding `Cc1oc(-c2cc(C(F)(F)F)ccc2Cl)cc1C(=O)Nc1nc(CN2CCOCC2)ns1`, the pIC50 on Androgen receptor is 7.54; with LNCaP [2] it was 5.49. In addition, on hERG (KCNH2), the inhibition at 10 µM was determined as 8%.

(Values after ChEMBL document CHEMBL6120968, “Discovery of Thiadiazoleamide Derivatives as Potent, Selective, and Orally Available Antagonists Disrupting Androgen Receptor Homodimer” (J Med Chem, 2024).)
